The target of this assay is T1, renin (Homo sapiens, UniProt P00797).
T1 construct: This test measures the formation of angiotensin I in human plasma; from tissue; host or cells: human plasma
T1 sequence (P00797 67-406): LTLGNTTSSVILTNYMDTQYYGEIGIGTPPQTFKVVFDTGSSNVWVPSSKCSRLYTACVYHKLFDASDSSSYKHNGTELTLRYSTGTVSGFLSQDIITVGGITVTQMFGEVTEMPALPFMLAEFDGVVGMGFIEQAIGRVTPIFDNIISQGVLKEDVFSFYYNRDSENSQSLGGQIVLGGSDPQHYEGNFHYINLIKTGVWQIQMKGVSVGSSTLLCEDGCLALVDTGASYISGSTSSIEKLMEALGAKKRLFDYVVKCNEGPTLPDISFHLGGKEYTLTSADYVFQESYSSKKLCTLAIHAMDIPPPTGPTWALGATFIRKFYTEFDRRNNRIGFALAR
Nature of the assay: in vitro test of Nussberger et al.: formation of angiotensin I in human plasma, determined by radioimmunoassay. Conditions: concentration of inhibitor which reduces the formation of angiotensin I in human plasma by 50%. In kind it is biochemical. On the procedure: The effect of renin inhibitors is detected inter alia experimentally by means of in vitro tests where the reduction in the formation of angiotensin I is measured in various systems (human plasma, purified human renin together with synthetic or natural renin substrate). The following in vitro test of Nussberger et al. (1987) J. Cardiovascular Pharmacol., Vol. 9, pp. 39-44, is used inter alia. This test measures the formation of angiotensin I in human plasma. The amount of angiotensin I formed is determined in a subsequent radioimmunoassay. The effect of inhibitors on the formation of angiotensin I is tested in this system by adding various concentrations of these substances. The IC50 is defined as the concentration of the particular inhibitor which reduces the formation of angiotensin I by 50%. The compounds of the present invention show inhibitory effects in the in vitro systems at minimal concentrations of about 10^−6 to about 10^−10 mol/l.

In patent US20100256146A1, “TRISUBSTITUTED PIPERIDINES” (Novartis AG, priority 2007, published 2010) one finds IC50 data, which are given here for six compounds.

pIC50: −log10 of the molar value.

As for `COCCCN1CCOc2ccc(CO[C@H]3CNCC[C@]3(OCCOC)c3ccc(COCCOC)cc3)cc21` [Example 1, 6-{(3S,4S)-4-(2-Methoxy-ethoxy)-4-[4-(2-methoxy-ethoxymethyl)-phenyl]-piperidine-3-yloxymethyl}-4-(3-methoxy-propyl)-3,4-dihydro-2H-benzo[1,4]oxazine], the pIC50 (in general, the negative decadic logarithm of the IC50, by convention in mol/L) was 7.58. Turning to `COCCCN1CCOc2ccc(CO[C@H]3CNCC[C@]3(OCC3CCCC3)c3ccc(COCCOC)cc3)cc21` [Example 5, 6-{(3S,4S)-4-Cyclopentylmethoxy-4-[4-(2-methoxy-ethoxymethyl)-phenyl]-piperidin-3-yloxymethyl}-4-(3-methoxy-propyl)-3,4-dihydro-2H-benzo[1,4]oxazine], the pIC50 was 7.03. With `COCCCN1CCOc2ccc(CO[C@H]3CNCC[C@]3(OC[C@H](O)COC)c3ccc(COCCOC)cc3)cc21` [Example 2, (R)-1-Methoxy-3-{(3S,4S)-4-[4-(2-methoxy-ethoxymethyl)-phenyl]-3-[4-(3-methoxy-propyl)-3,4-dihydro-2H-benzo[1,4]oxazin-6-ylmethoxy]-piperidin-4-yloxy}-propan-2-ol] the figure was 7.98; with `COCCCN1CCOc2ccc(CO[C@H]3CNCC[C@]3(OC[C@@H](O)COC)c3ccc(COCCOC)cc3)cc21` [Example 3, (S)-1-Methoxy-3-{(3S,4S)-4-[4-(2-methoxy-ethoxymethyl)-phenyl]-3-[4-(3-methoxy-propyl)-3,4-dihydro-2H-benzo[1,4]oxazin-6-ylmethoxy]-piperidin-4-yloxy}-propan-2-ol], 8.02. With `COCCCN1CCOc2ccc(CO[C@H]3CNCC[C@]3(OCC#N)c3ccc(COC[C@@H](C)COC)cc3)cc21` [Example 12, {(3S,4S)-4-[4-((S)-3-Methoxy-2-methyl-propoxymethyl)-phenyl]-3-[4-(3-methoxy-propyl)-3,4-dihydro-2H-benzo[1,4]oxazin-6-ylmethoxy]-piperidin-4-yloxy}-acetonitrile] the figure was 8.12.

`COCCCO[C@]1(c2ccc(COC[C@@H](C)COC)cc2)CCNC[C@@H]1OCc1ccc2c(c1)N(CCCOC)CCO2` [Example 10, 6-[(3S,4S)-4-[4-((S)-3-Methoxy-2-methyl-propoxymethyl)-phenyl]-4-(3-methoxy-propoxy)-piperidin-3-yloxymethyl]-4-(3-methoxy-propyl)-3,4-dihydro-2H-benzo[1,4]oxazine] gave a pIC50 of 8.52.
